The subject of assay [1] is HCT116 human colorectal carcinoma cells. Put plainly: Human tumor xenograft in vivo, HCT116. Particulars: Mus musculus, HCT-116; 30 mg/kg ip, mice; read-out: % Inhibition (relative to vehicle control) HCT116. As to the method:
(§1) Eight to ten week old female BCD1 mice (Taconic Labs, Great Barrington, N.Y.) were injected subcutaneously in the flank area with 2×10^6 preconditioned HCT116 human colorectal carcinoma cells, SW48 colon cancer cells, and A549 lung cancer cells. Preconditioning of these cells was done by a minimum of three consecutive tumor transplantations in the same strain of nude mice. Subsequently, tumor fragments of approximately 30 mgs were excised and implanted subcutaneously in mice, in the left flank area, under Forene anesthesia (Abbott Labs, Geneva, Switzerland). When the tumors reached a mean volume of 100 mm^3, the mice were treated intraperitoneally by daily injection, with a solution of the histone deacetylase inhibitor in DMSO, at a starting dose of 10 mg/kg. The optimal dose of the HDAC inhibitor was established by dose response experiments according to standard protocols. Tumor volume was calculated every second day post infusion according to standard methods (e.g., Meyer et al., Int. J. Cancer 43: 851-856 (1989)).
(In general: Xenograft models place foreign cells or tissue in a host animal.)

In assay [2] the test system is SW48 colon cancer cells. Put plainly: Human tumor xenograft in vivo, SW48. The note with it: Mus musculus, 30 mg/kg ip, mice, read-out: % Inhibition (relative to vehicle control) SW48. As to the method:
as §1

Assay [3] concerns A549 lung cancer cells. Description: Human tumor xenograft in vivo, A549. Particulars: 30 mg/kg ip, mice. As to the method:
as §1

The target of assay [4] is Human HDAC-1 (Homo sapiens, UniProt Q13547). Description: HDAC-1 enzymatic inhibition, Assay 2 (Boc-Lys(Ac)-AMC, Fluor-de-Lys). Type of assay: biochemical. The note with it: Assay 2: Boc-Lys(Ac)-AMC substrate, fluorescence; read-out: HDAC1 IC50. As to the method:
Assay 2. The following protocol was also used to assay the compounds of the invention. In the assay, the buffer used was 25 mM HEPES, pH 8.0, 137 mM NaCl, 2.7 mM KCl, 1 mM MgCl2 and the substrate was Boc-Lys(Ac)-AMC in a 50 mM stock solution in DMSO. The enzyme stock solution was 4.08 μg/mL in buffer. The compounds were pre-incubated (2 μl in DMSO diluted to 13 μl in buffer for transfer to assay plate) with enzyme (20 μl of 4.08 μg/ml) for 10 minutes at room temperature (35 μl pre-incubation volume). The mixture was pre-incubated for 5 minutes at room temperature. The reaction was started by bringing the temperature to 37° C. and adding […] substrate. Total reaction volume was 50 μl. The reaction was stopped after 20 minutes by addition of 50 μl developer, prepared as directed by Biomol (Fluor-de-Lys developer, Cat. # KI-105). A plate was incubated in the dark for 10 minutes at room temperature before reading (λEx=360 nm, λEm=470 nm, Cutoff filter at 435 nm).
Assay 1 was used to measure HDAC activity of compounds 10c, 13e, 16d, 26b, 44, 47, 61a, 61b, 63, 134, 138, and 308. Assay 2 was used to measure HDAC activity of compounds 361, 366, 367, 368, 369, 370, 371, 372, 373, 374, 375, 376, 377, and 378. In Table 14, “a” indicates activity of ≦0.1 μM, “b” indicates activity of ≦1 μM, “c” indicates activity of ≦5 μM, and “d” indicates activity of >5 μm. For the H4-Ac T24 EC vs. MS-275 assay in Table 14, “u” indicates less than 1, “v” indicates 1, and “w” indicates greater than 1. For the H3 Ac t24 assay in Table 14, “x” indicates activity of ≦1 μM, “y” indicates activity of ≦10 μM, and “z” indicates activity of ≦20 μM.

Assay [5] deals with HCT116 cells. Put plainly: MTT assay. It is filed as cell-based. Particulars: Homo sapiens, HCT-116, 72 hours. As to the method:
HCT116 cells (2000/well) were plated into 96-well tissue culture plates one day before compound treatment. Compounds at various concentrations were added to the cells. The cells were incubated for 72 hours at 37° C. in 5% CO2 incubator. MTT (3-[4,5-dimethylthiazol-2-yl]-2,5diphenyl tetrazolium bromide, Sigma) was added at a final concentration of 0.5 mg/ml and incubated with the cells for 4 hours before one volume of solubilization buffer (50% N,N-dimethylformamide, 20% SDS, pH 4.7) was added onto the cultured cells. After overnight incubation, solubilized dye was quantified by colorimetric reading at 570 nM using a reference at 630 nM using an MR700 plate reader (Dynatech Laboratories Inc.). OD values were converted to cell numbers according to a standard growth curve of the relevant cell line. The concentration which reduces cell numbers to 50% of that of solvent treated cells is determined as MTT IC50. In Table 14, “a” indicates activity of ≦0.1 μM, “b” indicates activity of ≦1 μM, and “c” indicates activity of ≦5 μM.

The test system of assay [6] is Histone H3 acetylation in T24 human bladder cancer cells. Description: Histone H3 acetylation assay. Type of assay: cell-based. Particulars: T-24, 16 h, concentration giving 50% of Emax of MS-275, read-out: H3 Ac t24. As to the method:
T24 human bladder cancer cells growing in culture are incubated with HDAC inhibitors for 16 h. Cell viability is determined by adding 10 μl Alamar Blue (BioSource, DAL1100). Cells are washed once with PBS and fixed with methanol precooled to −20° C. for 10 min. The cells are then washed twice in PBS. The fixed cells are blocked with 50 μl of PBS+0.1% Triton X-100. Cells are probed with rabbit-anti-acetyl-H3 (Upstate #06-599) as the primary antibody and then with goat-anti-rabbit-HRP (Sigma #A-0545) as the secondary antibody. Fluorescence is read by fluorometer at Ex:550, Em:610, Cutoff:590 (Auto PMT, 15 reads/well) after addition of Amplex-Red. Fluorescence signal is normalized against cell viability derived from Alamar Blue. Maximum acetylation signal of MS-275 (fluorescence unit) is measured as Emax. The concentration of compound which gives 50% of Emax is EC50. In Table 14, “x” indicates activity of ≦1 μM, “y” indicates activity of ≦10 μM, and “z” indicates activity of ≦20 μM.

Sequence of Human HDAC-1 (Q13547 whole entry): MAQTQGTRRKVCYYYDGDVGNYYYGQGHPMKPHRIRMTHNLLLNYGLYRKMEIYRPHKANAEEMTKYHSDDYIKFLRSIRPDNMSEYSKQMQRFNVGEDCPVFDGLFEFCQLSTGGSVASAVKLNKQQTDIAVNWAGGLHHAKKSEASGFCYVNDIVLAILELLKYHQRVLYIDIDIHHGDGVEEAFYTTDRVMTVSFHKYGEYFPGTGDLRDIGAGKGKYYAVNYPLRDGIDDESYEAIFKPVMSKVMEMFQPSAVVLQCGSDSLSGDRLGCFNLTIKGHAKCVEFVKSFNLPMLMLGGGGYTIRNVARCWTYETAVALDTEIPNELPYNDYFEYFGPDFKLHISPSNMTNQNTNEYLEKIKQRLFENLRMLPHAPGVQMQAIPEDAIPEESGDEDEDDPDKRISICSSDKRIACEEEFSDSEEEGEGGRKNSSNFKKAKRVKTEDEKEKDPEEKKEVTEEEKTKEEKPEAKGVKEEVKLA

Regarding `COc1ccc(CCNc2ccnc(NCc3ccc(C(=O)Nc4ccccc4N)cc3)n2)cc1OC` [10a, N-(2-Amino-phenyl)-4-({4-[2-(3,4-dimethoxy-phenyl)-ethylamino]-pyrimidin-2-ylamino}-methyl)-benzamide], the inhibition in vivo at 30 mg/kg in assay [1] worked out at 16.1%; in assay [2] it was 23%.

With `Nc1ccccc1NC(=O)c1ccc(CNc2nccc(-c3nccs3)n2)cc1` [26c, N-(2-Amino-phenyl)-4-[(4-thiazol-2-yl-pyrimidin-2-ylamino)-methyl]-benzamide], the inhibition in vivo at 30 mg/kg in assay [1] is 88%; in assay [2], 89.5%.

Consider `CN(C)C(=O)c1ccc(-c2ccnc(NCc3ccc(C(=O)Nc4ccccc4N)cc3)n2)cn1` [29a, 5-{2-[4-(2-Amino-phenylcarbamoyl)-benzylamino]-pyrimidin-4-yl}-pyridine-2-carboxylic acid dimethylamide], for which, in assay [2], the inhibition in vivo at 30 mg/kg came out at 70.2%. The “% Inhibition (relative to vehicle control) A549” value in assay [3] worked out at 31.8%.

With `Nc1ccccc1NC(=O)c1ccc(CNc2nccc(-c3ccncc3)n2)cc1` [31b, N-(2-Amino-phenyl)-4-[(4-pyridin-4-yl-pyrimidin-2-ylamino)-methyl]-benzamide], the inhibition in vivo at 30 mg/kg came to 39.4% in assay [1] and 47.8% in assay [2].

Consider `Nc1ccccc1NC(=O)c1ccc(CNc2nccc(-c3ccc(N4CCOCC4)nc3)n2)cc1` [34a, N-(2-Amino-phenyl)-4-{[4-(6-morpholin-4-yl-pyridin-3-yl)-pyrimidin-2-ylamino]-methyl}-benzamide], for which the inhibition in vivo at 30 mg/kg in assay [2] is 25.5%. Further, the “% Inhibition (relative to vehicle control) A549” value in assay [3] was determined as 67.1%.

In the case of `COCOC(C)(C)c1ccc(-c2ccnc(NCc3ccc(C(=O)Nc4ccccc4N)cc3)n2)cn1` [58b, N-(2-Amino-phenyl)-4-({4-[6-(1-methoxymethoxy-1-methyl-ethyl)-pyridin-3-yl]-pyrimidin-2-ylamino}-methyl)-benzamide], the values for the inhibition in vivo at 30 mg/kg in assay [1] and in assay [2] were 29.4% and 34.6%, respectively.

Regarding `CC(=O)Nc1ccc(NCc2ccc(C(=O)Nc3ccccc3N)cc2)cn1` [212f, 4-[(6-Acetylamino-pyridin-3-ylamino)-methyl]-N-(2-amino-phenyl)-benzamide], the values for the inhibition in vivo at 30 mg/kg in assay [1] and in assay [2] were 65.7% and 32.7%, respectively.

For the molecule `COc1ccc(NCc2ccc(C(=O)Nc3ccccc3N)cc2)cc1F` [212h, N-(2-Amino-phenyl)-4-[(3-fluoro-4-methoxy-phenylamino)-methyl]-benzamide], the inhibition in vivo at 30 mg/kg in assay [2] is 44%. Also, the “% Inhibition (relative to vehicle control) A549” value in assay [3] was determined as 54.4%.

For the molecule `CN(C)CC(=O)Nc1ccc2nc(SCc3ccc(C(=O)Nc4ccccc4N)cc3)sc2c1` [compound 158, N-(2-Amino-phenyl)-4-[6-(2-dimethylamino-acetylamino)-benzothiazol-2-ylsulfanylmethyl]-benzamide], the inhibition in vivo at 30 mg/kg in assay [2] came out at 43.2%. Also, the “% Inhibition (relative to vehicle control) A549” value in assay [3] came out at 42.6%.

As to `Nc1ccccc1NC(=O)c1ccc(CSc2nc3cc(F)c(F)cc3[nH]2)cc1` [compound 194, N-(2-Amino-phenyl)-4-(5,6-difluoro-1H-benzoimidazol-2-ylsulfanylmethyl)-benzamide], the inhibition in vivo at 30 mg/kg in assay [1] came to 54.5%; in assay [2] it was 23.1%.

Turning to `Cn1cnc2cc(NCc3ccc(C(=O)Nc4ccccc4N)cc3)ccc21` [compound 252, N-(2-Amino-phenyl)-4-[(1-methyl-1H-benzoimidazol-5-ylamino)-methyl]-benzamide], the values for the inhibition in vivo at 30 mg/kg in assay [1] and in assay [2] were 70.6% and 25.9%, respectively.

As for `CCC(=O)Nc1sc(Cc2ccc(C(=O)Nc3ccccc3N)cc2)cc1C(N)=O` [compound 296, 5-[4-(2-Amino-phenylcarbamoyl)-benzyl]-2-propionylamino thiophene-3-carboxylic acid amide], the inhibition in vivo at 30 mg/kg in assay [1] amounted to 63.9%; in assay [2] it was 53.4%.

For the molecule `Nc1ccccc1NC(=O)c1ccc(N2CC[C@H](Nc3cccnc3)C2)cc1` [compound 361, (S)—N-(2-Aminophenyl)-4-(3-(pyridin-3-ylamino)pyrrolidin-1-yl)benzamide], the IC50 – broadly, the concentration that inhibits the measured activity by half – in assay [4] was at most 0.1 µM; in assay [5] it was 0.1 to 1 µM. Also, in assay [6], the EC50 was at most 10 µM.

Turning to `Nc1ccccc1NC(=O)c1ccc(N2CC[C@@H](Nc3cccnc3)C2)cc1` [compound 366, (R)—N-(2-Aminophenyl)-4-(3-(pyridin-3-ylamino)pyrrolidin-1-yl)benzamide], the IC50 is 0.1 to 1 µM in assay [4] and 1 to 5 µM in assay [5]. Further, in assay [6], the EC50 is at most 20 µM.

For the molecule `Nc1ccccc1NC(=O)c1ccc(N2CC[C@H](Oc3cccnc3)C2)cc1` [compound 367, (S)—N-(2-Aminophenyl)-4-(3-(pyridin-3-yloxy)pyrrolidin-1-yl)benzamide], the IC50 in assay [4] and in assay [5] was 0.1 to 1 µM throughout. Moreover, the EC50 in assay [6] was at most 10 µM.

For `Nc1ccccc1NC(=O)c1ccc(N2CC[C@H](Nc3ccccc3)C2)cc1` [compound 369, (S)—N-(2-Aminophenyl)-4-(3-(phenylamino)pyrrolidin-1-yl)benzamide], the IC50 in assay [4] and in assay [5] was 0.1 to 1 µM throughout. Also, the EC50 in assay [6] is at most 1 µM.

In the case of `COc1cc(O[C@H]2CCN(c3ccc(C(=O)Nc4ccccc4N)cc3)C2)cc(OC)c1OC` [compound 374, (S)—N-(2-Aminophenyl)-4-(3-(3,4,5-trimethoxyphenoxy)pyrrolidin-1-yl)benzamide], the IC50 is at most 0.1 µM in assay [4] and 0.1 to 1 µM in assay [5]. Besides, in assay [6], the EC50 is at most 1 µM.

As to `Nc1ccccc1NC(=O)c1ccc(N2CC[C@H](Oc3ccc4c(c3)OCO4)C2)cc1` [compound 375, (S)—N-(2-Aminophenyl)-4-(3-(benzo[d][1,3]dioxol-5-yloxy)pyrrolidin-1-yl)benzamide], the concentration for half-maximal inhibition (IC50) is at most 0.1 µM in assay [4] and over 5 µM in assay [5]. The EC50 in assay [6] was at most 1 µM.

In the case of `Nc1ccccc1NC(=O)c1ccc(N2CC[C@H](Sc3ccccn3)C2)cc1` [compound 378, (S)—N-(2-Aminophenyl)-4-(3-(pyridin-2-ylthio)pyrrolidin-1-yl)benzamide], the IC50 in assay [4] and in assay [5] was 0.1 to 1 µM in each case. The EC50 in assay [6] is at most 10 µM.

For the origin of these results see patent US8088805B2, “Inhibitors of histone deacetylase” (MethylGene Inc., priority 2004, dated 2012).
